What was measured:
H1047R PIK3CA enzyme = H1047R PIK3CA enzyme (Homo sapiens, UniProt P42336, H1047R); experiment: ADP-Glo Biochemical PIK3CA Kinase Assay
cells = conditions: Homo sapiens, MCF-10A, read-out: MCF10A IC50

Chain of H1047R PIK3CA enzyme (P42336 whole entry H1047R): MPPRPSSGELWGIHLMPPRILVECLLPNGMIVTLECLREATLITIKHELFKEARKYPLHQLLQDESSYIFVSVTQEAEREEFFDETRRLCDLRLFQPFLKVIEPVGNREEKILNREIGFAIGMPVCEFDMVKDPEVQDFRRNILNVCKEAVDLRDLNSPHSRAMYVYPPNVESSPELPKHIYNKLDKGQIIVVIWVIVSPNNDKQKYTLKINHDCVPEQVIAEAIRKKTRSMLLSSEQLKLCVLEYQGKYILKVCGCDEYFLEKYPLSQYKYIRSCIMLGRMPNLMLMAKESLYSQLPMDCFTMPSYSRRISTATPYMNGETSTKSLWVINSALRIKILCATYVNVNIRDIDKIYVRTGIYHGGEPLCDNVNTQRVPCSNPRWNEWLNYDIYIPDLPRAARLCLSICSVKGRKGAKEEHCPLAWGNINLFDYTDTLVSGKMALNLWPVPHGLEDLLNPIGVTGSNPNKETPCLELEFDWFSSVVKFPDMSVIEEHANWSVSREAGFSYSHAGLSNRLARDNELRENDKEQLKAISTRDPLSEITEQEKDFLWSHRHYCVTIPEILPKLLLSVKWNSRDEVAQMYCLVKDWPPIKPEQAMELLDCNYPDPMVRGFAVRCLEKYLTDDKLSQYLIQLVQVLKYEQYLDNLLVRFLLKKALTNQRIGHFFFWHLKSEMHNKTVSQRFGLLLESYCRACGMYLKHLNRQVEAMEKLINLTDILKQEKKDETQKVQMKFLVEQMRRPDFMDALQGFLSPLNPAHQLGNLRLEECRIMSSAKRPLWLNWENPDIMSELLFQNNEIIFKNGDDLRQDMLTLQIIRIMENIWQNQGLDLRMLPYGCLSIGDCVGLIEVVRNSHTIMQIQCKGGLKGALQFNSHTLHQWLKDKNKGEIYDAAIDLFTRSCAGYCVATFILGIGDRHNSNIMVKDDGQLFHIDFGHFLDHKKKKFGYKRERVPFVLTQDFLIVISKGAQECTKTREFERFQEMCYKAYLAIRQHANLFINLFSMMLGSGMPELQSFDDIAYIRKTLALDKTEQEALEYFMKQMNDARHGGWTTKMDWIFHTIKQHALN
Chain of H1047R PIK3CA enzyme (P27986 whole entry partner): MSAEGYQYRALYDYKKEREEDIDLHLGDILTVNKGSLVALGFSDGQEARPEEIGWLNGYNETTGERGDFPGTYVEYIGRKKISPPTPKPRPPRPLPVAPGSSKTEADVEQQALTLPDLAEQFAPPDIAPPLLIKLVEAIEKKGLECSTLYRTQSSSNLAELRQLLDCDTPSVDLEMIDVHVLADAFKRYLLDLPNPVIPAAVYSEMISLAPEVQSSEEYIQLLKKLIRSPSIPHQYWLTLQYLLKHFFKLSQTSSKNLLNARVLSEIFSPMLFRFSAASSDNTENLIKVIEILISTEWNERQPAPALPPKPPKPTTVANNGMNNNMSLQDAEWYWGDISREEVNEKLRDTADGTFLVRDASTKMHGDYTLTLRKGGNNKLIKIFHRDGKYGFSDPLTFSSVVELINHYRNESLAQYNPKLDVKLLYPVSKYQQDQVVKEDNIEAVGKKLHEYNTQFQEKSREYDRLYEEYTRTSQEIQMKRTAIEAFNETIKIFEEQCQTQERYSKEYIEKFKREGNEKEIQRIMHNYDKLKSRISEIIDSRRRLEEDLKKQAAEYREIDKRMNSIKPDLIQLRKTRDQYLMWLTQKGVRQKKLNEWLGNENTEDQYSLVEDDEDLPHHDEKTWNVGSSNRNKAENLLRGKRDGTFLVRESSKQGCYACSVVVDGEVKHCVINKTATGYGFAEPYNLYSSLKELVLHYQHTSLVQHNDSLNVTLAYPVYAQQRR

| Compound | IC50 (H1047R PIK3CA enzyme) | IC50 (cells) |
| --- | --- | --- |
| Cc1ccccc1C1NC(=O)c2cc(NC3COC3)cc(NC(=O)c3csc4ccccc34)c21 (centres unmarked) [Compound I-51] | ≤ 100 nM | < 1000 nM |
| O=C(Nc1cc(-c2cnc3cnccn23)cc2c1C(c1cc(F)ccc1Cl)NC2=O)c1cc(F)cc(C(F)(F)F)c1 (centres unmarked) [Compound I-940] | ≤ 100 nM | < 1000 nM |
| O=C(Nc1cc(-c2cnn(C3CNC3)c2)cc2c1C(c1cc(F)ccc1Cl)NC2=O)c1cc(F)cc(C(F)(F)F)c1 (centres unmarked) [Compound I-903] | ≤ 100 nM | 10000 to 36000 nM |
| C#Cc1ccccc1-c1cc(NC(=O)c2cc(F)cc(C(F)(F)F)c2)c2c(c1)C(=O)NC2c1cc(F)ccc1Cl (centres unmarked) [Compound I-1163] | ≤ 100 nM | < 1000 nM |
| CS(=O)(=O)Nc1cc(NC(=O)c2cc(F)cc(C(F)(F)F)c2)c2c(c1)C(=O)NC2c1cc(F)ccc1Cl (centres unmarked) [Compound I-1159] | ≤ 100 nM | < 1000 nM |
| O=C(Nc1cc(-c2ccc3ncncc3c2)cc2c1C(c1cc(F)ccc1Cl)NC2=O)c1cc(F)cc(C(F)(F)F)c1 (centres unmarked) [Compound I-1093] | ≤ 100 nM | < 1000 nM |
| O=C(Nc1cc(-c2ccc3c(c2)C(=O)NCCO3)cc2c1C(c1cc(F)ccc1Cl)NC2=O)c1cc(F)cc(C(F)(F)F)c1 (centres unmarked) [Compound I-1048] | ≤ 100 nM | < 1000 nM |
| Cc1ccccc1C1NC(=O)c2cc(CNC(=O)OC(C)(C)C)cc(NC(=O)c3csc4ccccc34)c21 (centres unmarked) [Compound I-87] | ≤ 100 nM | 1000 to 5000 nM |
| CN(C)c1cc(NC(=O)N2C[C@](O)(C(F)(F)F)c3cc(F)ccc32)c2c(n1)C(=O)N[C@H]2c1cc(F)ccc1Cl (single isomer, unassigned) [Compound I-2690] | ≤ 100 nM | < 1000 nM |
| COCc1cc(NC(=O)c2cc(F)cc(C(F)(F)F)c2)c2c(c1)C(=O)N[C@H]2c1cc(F)ccc1Cl [Compound I-691] | ≤ 100 nM | < 1000 nM |
| CC(C)(CN)n1cc(-c2cc(NC(=O)c3cc(F)cc(C(F)(F)F)c3)c3c(c2)C(=O)NC3c2cc(F)ccc2Cl)cn1 (centres unmarked) [Compound I-2186] | ≤ 100 nM | 1000 to 5000 nM |
| O=C1N[C@@H](c2cc(F)ccc2Cl)c2c(Nc3nccc4c(C(F)(F)F)cc(F)cc34)cc(Br)cc21 [Compound I-1109] | ≤ 100 nM | < 1000 nM |
| O=C1N[C@@H](c2cc(F)ccc2Cl)c2c(NC(=O)N3C[C@@H](O)c4ccccc43)cc(Br)cc21 (single isomer, unassigned) [Compound I-1514] | ≤ 100 nM | 1000 to 5000 nM |
| CC(C)(C)OC(=O)N1CC(n2cc(-c3cc(NC(=O)c4cc(F)cc(C(F)(F)F)c4)c4c(c3)C(=O)NC4c3cc(F)ccc3Cl)cn2)C1 (centres unmarked) [Compound I-944] | ≤ 100 nM | 5000 to 10000 nM |
| O=C1N[C@H](c2cc(F)ccc2Cl)c2c(NC(=O)N3C[C@](O)(C(F)F)c4cc(F)ccc43)cccc21 (single isomer, unassigned) [Compound I-2558] | ≤ 100 nM | < 1000 nM |
| C[C@@]1(C(=O)Nc2cc(Br)cc3c2[C@H](c2cc(F)ccc2Cl)NC3=O)CCC[C@H](C(F)(F)F)C1 (single isomer, unassigned) [Compound I-2262] | 100 to 500 nM | 1000 to 5000 nM |
| O=C(Nc1cc(-c2cnc(N3CCOCC3)nc2)cc2c1C(c1cc(F)ccc1Cl)NC2=O)c1cc(F)cc(C(F)(F)F)c1 (centres unmarked) [Compound I-930] | ≤ 100 nM | 1000 to 5000 nM |
| CNc1cc(NC(=O)N2C[C@](O)(C(F)(F)F)c3cc(F)ccc32)c2c(n1)C(=O)N[C@@H]2c1cc(F)ccc1Cl (single isomer, unassigned) [Compound I-2644] | ≤ 100 nM | < 1000 nM |
| CNC(=O)c1cc(NC(=O)c2nsc3ccccc23)c2c(c1)C(=O)N[C@@H]2c1ccccc1C [Compound I-164] | 1000 to 10000 nM | 10000 to 36000 nM |

| Compound | IC50 (H1047R PIK3CA enzyme) | IC50 (cells) |
| --- | --- | --- |
| O=C(Nc1cc(-c2ccc3ncnn3c2)cc2c1[C@H](c1cc(F)ccc1Cl)NC2=O)c1cc(F)cc(C(F)(F)F)c1 (single isomer, unassigned) [Compound I-945] | ≤ 100 nM | < 1000 nM |
| O=C1NC(c2cc(F)ccc2Cl)c2c(Nc3nccc4c(Cl)cc(F)cc34)cc(Br)cc21 (centres unmarked) [Compound I-959] | 100 to 500 nM | < 1000 nM |
| Cc1ccccc1C1NC(=O)c2cc(C(=O)NCC(F)F)cc(NC(=O)c3nsc4ccccc34)c21 (centres unmarked) [Compound I-121] | ≤ 100 nM | < 1000 nM |
| O=C1N[C@@H](c2cc(F)ccc2Cl)c2c(NC(=O)N3CCc4ccccc43)cc(-c3ccc4ncnn4c3)cc21 (stereo in doubt) [Compound I-1715] | ≤ 100 nM | < 1000 nM |
| O=C(Nc1cc(-c2cn3ncnc3cn2)cc2c1C(c1cc(F)ccc1C(F)F)NC2=O)c1cc(F)cc(Cl)c1 (centres unmarked) [Compound I-2201] | ≤ 100 nM | 1000 to 5000 nM |
| O=C(Nc1cc(I)cc2c1C(c1cc(F)ccc1Cl)NC2=O)c1cc(F)cc(C(F)(F)F)c1 (centres unmarked) [Compound I-913] | ≤ 100 nM | < 1000 nM |
| O=C(Nc1cc(-c2cn[nH]c2)cc2c1C(c1cc(F)ccc1Cl)NC2=O)c1cc(F)cc(C(F)(F)F)c1 (centres unmarked) [Compound I-878] | ≤ 100 nM | < 1000 nM |
| O=C1N[C@@H](c2cc(F)ccc2Cl)c2c(NC(=O)N3C[C@H](O)c4cc(F)ccc43)cc(-n3cccn3)cc21 (single isomer, unassigned) [Compound I-2364] | ≤ 100 nM | 1000 to 5000 nM |
| Cc1cn(-c2cc(NC(=O)N3C[C@](O)(C(F)(F)F)c4cc(F)ccc43)c3c(c2)C(=O)N[C@@H]3c2cc(F)ccc2Cl)cn1 (single isomer, unassigned) [Compound I-2637] | ≤ 100 nM | < 1000 nM |
| O=C1N[C@@H](c2cc(F)ccc2Cl)c2c(NC(=O)N3C[C@H](O)c4c(F)cccc43)cccc21 (single isomer, unassigned) [Compound I-2142] | ≤ 100 nM | < 1000 nM |
| O=C(Nc1cc(-c2nc3ncccc3[nH]2)cc2c1C(c1cc(F)ccc1Cl)NC2=O)c1cc(F)cc(C(F)(F)F)c1 (centres unmarked) [Compound I-1026] | ≤ 100 nM | < 1000 nM |
| O=C1NC(c2cc(F)ccc2Cl)c2c(NC(=O)N3CC(O)(C(F)F)c4cc(F)ccc43)cccc21 (mixture of isomers) [Compound I-2488] | ≤ 100 nM | 1000 to 5000 nM |
| O=C1NC(c2cc(F)ccc2Cl)c2c(NC(=O)N3CC(O)c4cc(F)ccc43)cc(-c3cnn(C(F)F)c3)cc21 (centres unmarked) [Compound I-2299] | ≤ 100 nM | 1000 to 5000 nM |
| O=C(Nc1cc(-c2cccc3ncccc23)cc2c1C(c1cc(F)ccc1Cl)NC2=O)c1cc(F)cc(C(F)(F)F)c1 (centres unmarked) [Compound I-931] | ≤ 100 nM | < 1000 nM |
| O=C1NC(c2cc(F)ccc2Cl)c2c(NC(=O)N3CC(O)(C(F)(F)F)c4cc(F)ccc43)cc(F)cc21 (centres unmarked) [Compound I-2623] | ≤ 100 nM | < 1000 nM |
| CC(C)(O)c1cc(NC(=O)N2C[C@@H](O)c3ccccc32)c2c(c1)C(=O)N[C@H]2c1cc(F)ccc1Cl (single isomer, unassigned) [Compound I-2124] | ≤ 100 nM | 1000 to 5000 nM |
| COc1ccc(CNCc2cc(NC(=O)c3nsc4ccccc34)c3c(c2)C(=O)NC3c2cc(F)ccc2Cl)cc1 (centres unmarked) [Compound I-155] | ≤ 100 nM | 1000 to 5000 nM |
| O=C(Nc1cc(-c2ccnn2CC2CC2)cc2c1C(c1cc(F)ccc1Cl)NC2=O)c1cc(F)cc(C(F)(F)F)c1 (centres unmarked) [Compound I-1038] | ≤ 100 nM | < 1000 nM |

— US12581252B2, “Substituted pyrrolo[3,4-b]pyridines as PI3K-α inhibitors” (Relay Therapeutics, Inc., priority 2020, dated 2026)
